Assay: amounts of β-lactam antibiotic, β-lactamase inhibitor (C18 reverse-phase LC, UV-VIS) and aminoglycoside (HPLC-ELSD) in solution over time
Type: physicochemical
Procedure: The amounts of β-lactam antibiotics and β-lactamase inhibitor were determined using C18 reverse-phase LC and UV-VIS detector (Tianjin Hemay BioTech Co., Ltd., analysis method No. HM-K-03). The content of aminoglycoside antibiotics was measured using reverse-phase HPLC and evaporation-light-scattering detector (ELSD detector) (Tianjin Hemay BioTech Co., Ltd., analysis method No. HM-K-08). The amount of antibiotic component at each time point was expressed as a percentage with respect to the amount at the initial time (herein defined as 100%). The relative amount of each antibiotic component in the composition at each time point was expressed as peak area ratio with respect to the corresponding peak area of an external standard.

amount of component as percentage with respect to the amount at the initial time (Example 4: cefoperazone sodium 4 g, sulbactam sodium 0.5 g, gentamicin 80 mg, citrate pH 6.75, 200 mL water, room temperature, Time 0 h): 101.4%
amount of component as percentage with respect to the amount at the initial time (Example 4: cefoperazone sodium 4 g, sulbactam sodium 0.5 g, gentamicin 80 mg, citrate pH 6.75, 200 mL water, room temperature, Time 1 h): 98.66%
amount of component as percentage with respect to the amount at the initial time (Example 4: cefoperazone sodium 4 g, sulbactam sodium 0.5 g, gentamicin 80 mg, citrate pH 6.75, 200 mL water, room temperature, Time 2 h): 98.79%
amount of component as percentage with respect to the amount at the initial time (Example 4: cefoperazone sodium 4 g, sulbactam sodium 0.5 g, gentamicin 80 mg, citrate pH 6.75, 200 mL water, room temperature, Time 4 h): 101.5%
amount of component as percentage with respect to the amount at the initial time (Example 4: cefoperazone sodium 4 g, sulbactam sodium 0.5 g, gentamicin 80 mg, citrate pH 6.75, 200 mL water, room temperature, Time 6 h): 107.4%
amount of component as percentage with respect to the amount at the initial time (Example 5: freeze-dried cefoperazone sodium 4 g, sulbactam sodium 0.5 g, citrate pH 6.75, + amikacin sulfate 500 mg, 7 days 0° C., dissolved in 100 mL water, Time 0 h): 101.4%
amount of component as percentage with respect to the amount at the initial time (Example 5: freeze-dried cefoperazone sodium 4 g, sulbactam sodium 0.5 g, citrate pH 6.75, + amikacin sulfate 500 mg, 7 days 0° C., dissolved in 100 mL water, Time 1 h): 98.66%
amount of component as percentage with respect to the amount at the initial time (Example 5: freeze-dried cefoperazone sodium 4 g, sulbactam sodium 0.5 g, citrate pH 6.75, + amikacin sulfate 500 mg, 7 days 0° C., dissolved in 100 mL water, Time 2 h): 98.79%
amount of component as percentage with respect to the amount at the initial time (Example 5: freeze-dried cefoperazone sodium 4 g, sulbactam sodium 0.5 g, citrate pH 6.75, + amikacin sulfate 500 mg, 7 days 0° C., dissolved in 100 mL water, Time 4 h): 101.5%
amount of component as percentage with respect to the amount at the initial time (Example 5: freeze-dried cefoperazone sodium 4 g, sulbactam sodium 0.5 g, citrate pH 6.75, + amikacin sulfate 500 mg, 7 days 0° C., dissolved in 100 mL water, Time 6 h): 107.4%
amount of component as percentage with respect to the amount at the initial time (Example 6: freeze-dried cefoperazone sodium 4 g, sulbactam sodium 1 g, citrate pH 6.75, + etimicin sulfate 200 mg, 7 days 0° C., dissolved in 100 mL water, Time 0 h): 110.4%
amount of component as percentage with respect to the amount at the initial time (Example 6: freeze-dried cefoperazone sodium 4 g, sulbactam sodium 1 g, citrate pH 6.75, + etimicin sulfate 200 mg, 7 days 0° C., dissolved in 100 mL water, Time 1 h): 99.48%
amount of component as percentage with respect to the amount at the initial time (Example 6: freeze-dried cefoperazone sodium 4 g, sulbactam sodium 1 g, citrate pH 6.75, + etimicin sulfate 200 mg, 7 days 0° C., dissolved in 100 mL water, Time 2 h): 101.3%
amount of component as percentage with respect to the amount at the initial time (Example 6: freeze-dried cefoperazone sodium 4 g, sulbactam sodium 1 g, citrate pH 6.75, + etimicin sulfate 200 mg, 7 days 0° C., dissolved in 100 mL water, Time 4 h): 98.66%
amount of component as percentage with respect to the amount at the initial time (Example 6: freeze-dried cefoperazone sodium 4 g, sulbactam sodium 1 g, citrate pH 6.75, + etimicin sulfate 200 mg, 7 days 0° C., dissolved in 100 mL water, Time 6 h): 98.02%
amount of component as percentage with respect to the amount at the initial time (Example 6: freeze-dried cefoperazone sodium 4 g, sulbactam sodium 1 g, citrate pH 6.75, + etimicin sulfate 200 mg, 7 days 0° C., dissolved in 100 mL water, Time 8 h): 99.30%
amount of component as percentage with respect to the amount at the initial time (Example 14: freeze-dried cefoperazone sodium 4 g, sulbactam sodium 2 g, citrate pH 6.75, 7 days 0° C., in 100 mL water, 10 mL + gentamicin sulfate 16 mg, room temperature, Time 0 h): 98.42%
amount of component as percentage with respect to the amount at the initial time (Example 14: freeze-dried cefoperazone sodium 4 g, sulbactam sodium 2 g, citrate pH 6.75, 7 days 0° C., in 100 mL water, 10 mL + gentamicin sulfate 16 mg, room temperature, Time 1 h): 97.39%
amount of component as percentage with respect to the amount at the initial time (Example 14: freeze-dried cefoperazone sodium 4 g, sulbactam sodium 2 g, citrate pH 6.75, 7 days 0° C., in 100 mL water, 10 mL + gentamicin sulfate 16 mg, room temperature, Time 2 h): 97.46%
amount of component as percentage with respect to the amount at the initial time (Example 14: freeze-dried cefoperazone sodium 4 g, sulbactam sodium 2 g, citrate pH 6.75, 7 days 0° C., in 100 mL water, 10 mL + gentamicin sulfate 16 mg, room temperature, Time 4 h): 94.70%
amount of component as percentage with respect to the amount at the initial time (Example 14: freeze-dried cefoperazone sodium 4 g, sulbactam sodium 2 g, citrate pH 6.75, 7 days 0° C., in 100 mL water, 10 mL + gentamicin sulfate 16 mg, room temperature, Time 6 h): 93.02%
amount of component as percentage with respect to the amount at the initial time (Example 15: freeze-dried cefoperazone sodium 4 g, sulbactam sodium 4 g, citrate pH 6.75, 7 days 0° C., in 100 mL water, 10 mL + gentamicin sulfate 16 mg, room temperature, Time 0 h): 101.7%
amount of component as percentage with respect to the amount at the initial time (Example 15: freeze-dried cefoperazone sodium 4 g, sulbactam sodium 4 g, citrate pH 6.75, 7 days 0° C., in 100 mL water, 10 mL + gentamicin sulfate 16 mg, room temperature, Time 1 h): 96.06%
amount of component as percentage with respect to the amount at the initial time (Example 15: freeze-dried cefoperazone sodium 4 g, sulbactam sodium 4 g, citrate pH 6.75, 7 days 0° C., in 100 mL water, 10 mL + gentamicin sulfate 16 mg, room temperature, Time 2 h): 95.72%
amount of component as percentage with respect to the amount at the initial time (Example 15: freeze-dried cefoperazone sodium 4 g, sulbactam sodium 4 g, citrate pH 6.75, 7 days 0° C., in 100 mL water, 10 mL + gentamicin sulfate 16 mg, room temperature, Time 4 h): 97.32%
amount of component as percentage with respect to the amount at the initial time (Example 15: freeze-dried cefoperazone sodium 4 g, sulbactam sodium 4 g, citrate pH 6.75, 7 days 0° C., in 100 mL water, 10 mL + gentamicin sulfate 16 mg, room temperature, Time 6 h): 69.95%
amount of component as percentage with respect to the amount at the initial time (Example 16: 10 mL of the final solution (cefoperazone sodium, tazobactam sodium, etimicin sulfate, citrate) + gentamicin sulfate 16 mg, Time 0 h): 92.44%
amount of component as percentage with respect to the amount at the initial time (Example 16: 10 mL of the final solution (cefoperazone sodium, tazobactam sodium, etimicin sulfate, citrate) + gentamicin sulfate 16 mg, Time 1 h): 104.6%
amount of component as percentage with respect to the amount at the initial time (Example 16: 10 mL of the final solution (cefoperazone sodium, tazobactam sodium, etimicin sulfate, citrate) + gentamicin sulfate 16 mg, Time 2 h): 102.4%
amount of component as percentage with respect to the amount at the initial time (Example 16: 10 mL of the final solution (cefoperazone sodium, tazobactam sodium, etimicin sulfate, citrate) + gentamicin sulfate 16 mg, Time 4 h): 97.95%
amount of component as percentage with respect to the amount at the initial time (Example 16: 10 mL of the final solution (cefoperazone sodium, tazobactam sodium, etimicin sulfate, citrate) + gentamicin sulfate 16 mg, Time 6 h): 98.90%
amount of component as percentage with respect to the amount at the initial time (Example 16: 10 mL of the final solution (cefoperazone sodium, tazobactam sodium, etimicin sulfate, citrate) + gentamicin sulfate 16 mg, Time 8 h): 102.9%
amount of component as percentage with respect to the amount at the initial time (Example 16: freeze-dried cefoperazone sodium 4 g, tazobactam sodium 1 g, citrate pH 6.75, 7 days 0° C., in 100 mL water, 10 mL + etimicin sulfate 20 mg, room temperature, Time 0 h): 102.9%
amount of component as percentage with respect to the amount at the initial time (Example 16: freeze-dried cefoperazone sodium 4 g, tazobactam sodium 1 g, citrate pH 6.75, 7 days 0° C., in 100 mL water, 10 mL + etimicin sulfate 20 mg, room temperature, Time 1 h): 108.6%
amount of component as percentage with respect to the amount at the initial time (Example 16: freeze-dried cefoperazone sodium 4 g, tazobactam sodium 1 g, citrate pH 6.75, 7 days 0° C., in 100 mL water, 10 mL + etimicin sulfate 20 mg, room temperature, Time 2 h): 104.6%
amount of component as percentage with respect to the amount at the initial time (Example 16: freeze-dried cefoperazone sodium 4 g, tazobactam sodium 1 g, citrate pH 6.75, 7 days 0° C., in 100 mL water, 10 mL + etimicin sulfate 20 mg, room temperature, Time 4 h): 99.50%
amount of component as percentage with respect to the amount at the initial time (Example 16: freeze-dried cefoperazone sodium 4 g, tazobactam sodium 1 g, citrate pH 6.75, 7 days 0° C., in 100 mL water, 10 mL + etimicin sulfate 20 mg, room temperature, Time 6 h): 98.91%
amount of component as percentage with respect to the amount at the initial time (Example 16: freeze-dried cefoperazone sodium 4 g, tazobactam sodium 1 g, citrate pH 6.75, 7 days 0° C., in 100 mL water, 10 mL + etimicin sulfate 20 mg, room temperature, Time 8 h): 103.4%
amount of component as percentage with respect to the amount at the initial time (Example 17: freeze-dried cefoperazone sodium 4 g, sulbactam sodium 1 g, citrate pH 6.75, 7 days 0° C., in 100 mL water, 10 mL + amikacin sulfate 40 mg, room temperature, Time 0 h): 92.30%
amount of component as percentage with respect to the amount at the initial time (Example 17: freeze-dried cefoperazone sodium 4 g, sulbactam sodium 1 g, citrate pH 6.75, 7 days 0° C., in 100 mL water, 10 mL + amikacin sulfate 40 mg, room temperature, Time 1 h): 94.80%
amount of component as percentage with respect to the amount at the initial time (Example 17: freeze-dried cefoperazone sodium 4 g, sulbactam sodium 1 g, citrate pH 6.75, 7 days 0° C., in 100 mL water, 10 mL + amikacin sulfate 40 mg, room temperature, Time 2 h): 94.06%
amount of component as percentage with respect to the amount at the initial time (Example 17: freeze-dried cefoperazone sodium 4 g, sulbactam sodium 1 g, citrate pH 6.75, 7 days 0° C., in 100 mL water, 10 mL + amikacin sulfate 40 mg, room temperature, Time 4 h): 94.12%
amount of component as percentage with respect to the amount at the initial time (Example 17: freeze-dried cefoperazone sodium 4 g, sulbactam sodium 1 g, citrate pH 6.75, 7 days 0° C., in 100 mL water, 10 mL + amikacin sulfate 40 mg, room temperature, Time 6 h): 93.15%
amount of component as percentage with respect to the amount at the initial time (Example 17: freeze-dried cefoperazone sodium 4 g, sulbactam sodium 1 g, citrate pH 6.75, 7 days 0° C., in 100 mL water, 10 mL + amikacin sulfate 40 mg, room temperature, Time 8 h): 94.50%
SMILES: CCN1CCN(C(=O)N[C@@H](C(=O)N[C@@H]2C(=O)N3C(C(=O)O)=C(CSc4nnnn4C)CS[C@H]23)c2ccc(O)cc2)C(=O)C1=O [Cefoperazone sodium]

Reference: patent US20090156518A1, “STABLE PHARMACEUTICAL COMPOSITION COMPRISING BETA-LACTAM ANTIBIOTIC AND BUFFER” (priority 2006, published 2009)
